Assay results reported in patent US20060062758A1, “Tight junction modulator peptide PN159 for enhanced mucosal delivery of therapeutic compounds” (Nastech Pharmaceutical Comapny Inc., priority 2004, published 2006).

How the values were obtained:
[1] = tested on: EpiAirway™ Cell Membrane (mucosal epithelial cell layer); test: Transepithelial electrical resistance (TER), EpiAirway in vitro epithelial tissue model; assay type: cell-based; conditions: for TER(x)/TER(159) +/− SEM*: mean values from multiple repeats
From the text: One “kit” consists of 24 units.
A. Respiratory airway epithelial cells form tight junctions in vivo as well as in vitro, and thereby restrict the flow of solutes across the tissue. These junctions confer a transepithelial resistance of several hundred ohms×cm^2 in excised airway tissues. In the MatTek EpiAirway™ units, the transepithelial electrical resistance (TER) is reported by the manufacturer to be routinely around 1000 ohms×cm^2. […] The porous membrane-bottomed units without cells, conversely, provide only minimal transmembrane resistance (approximately 5-20 ohms×cm^2).
B. Accurate determinations of TER require that the electrodes of the ohmmeter be positioned over a significant surface area above and below the membrane, and that the distance of the electrodes from the membrane be reproducibly controlled. The method for TER determination recommended by MatTek and employed for all experiments herein employs an “EVOM”™ epithelial voltohmmeter and an “ENDOHM”™ tissue resistance measurement chamber from World Precision Instruments, Inc., Sarasota, Fla.
D. Determinations of TER are made with 1.5 mL of PBS in the chamber and 350 μL of PBS in the membrane-bottomed unit being measured. The top electrode is adjusted to a position just above the membrane of a unit containing no cells (but containing 350 μL of PBS) and then fixed to ensure reproducible positioning. The resistance of a cell-free unit is typically 5-20 ohms×cm^2 (“background resistance”).
G. The unit is gently blotted free of excess PBS on its exterior surface only before being placed into the chamber (containing a fresh 1.5 mL aliquot of PBS). An aliquot of 350 μL PBS is added to the unit before the top electrode is placed on the chamber and the TER is read on the EVOM meter.
I. The units are read in the following sequence: all sham-treated controls, followed by all formulation-treated samples, followed by a second TER reading of each of the sham-treated controls. All TER values are reported as a function of the surface area of the tissue.
TER was calculated as: TER=(R1−Rb)×A Where R1 is resistance of the insert with a membrane, Rb is the resistance of the blank insert, and A is the area of the membrane (0.6 cm^2). The effect of pharmaceutical formulations comprising intranasal delivery-enhancing agents, for example, permeabilizing peptides as measured by TER across the EpiAirway™ Cell Membrane (mucosal epithelial cell layer). Permeabilizing peptides are applied to the EpiAirway™ Cell Membrane at a concentration of 1.0 mM. A decrease in TER value relative to the control value (control=approximately 1000 ohms-cm^2; normalized to 100.) indicates a decrease in cell membrane resistance and an increase in mucosal epithelial cell permeability.
(§1) The formulation pH was fixed at 4.5.

[2] = tested on: EpiAirway™ Cell Membrane (mucosal epithelial cell layer); test: LDH assay (cytotoxicity), in vitro epithelial tissue model; assay type: cell-based
Procedure: Repeated freeze-thaw cycles are to be avoided.
The amount of cell death was assayed by measuring the loss of lactate dehydrogenase (LDH) from the cells using a CytoTox 96 Cytoxicity Assay Kit (Promega Corp., Madison, Wis.). Fifty microliters of sample was loaded into a 96-well assay plates. Fresh, cell-free culture medium was used as a blank. 50 μl of substrate solution was added to each well and the plates incubated for 30 minutes at room temperature in the dark. Following incubation, 50 μl of stop solution was added to each well and the plates read on an optical density plate reader at 490 nm.
as §1

[3] = Intranasal PYY plasma pharmacokinetics in rabbits; assay type: in vivo, New Zealand White rabbits; conditions: for plasma concentration of PYY: average of 4 animals; for Relative AUC last / Relative Cmax / AUCINF, Mean / AUClast, Mean: plasma PYY; for Relative AUC last / Relative Cmax: compared with Group 2 (no enhancer) formulation
Procedure: 20 male New Zealand White rabbits age 3-6 months and weighing 2.1-3.0 kg were randomly assigned into one of 5 treatment groups with four animals per group. Test animals were dosed at 15 μl/kg and intranasally via pipette. Table 4 below indicates the composition of five different dose groups.
For dosing group 1 (see Table 1) a clinical formulation of PYY including small molecule permeation enhancers was used. The small molecule enhancers in these studies included methyl-βcyclodextrin, phosphatidylcholine didecanoyl (DDPC), and/or EDTA. Dosing group 2 received PYY dissolved in phosphate buffered saline (PBS).
Serial blood samples (about 2 ml each) were collected by direct venipuncture from a marginal ear vein into blood collection tubes containing EDTA as an anticoagulant. Blood samples were collected at 0, 2.5, 5, 10, 15, 30, 45, 60, and 120 minutes post-dosing. After collection of the blood, the tubes were gently rocked several times for anti-coagulation, and then 50 μl aprotinin solution was added. The blood was centrifuged at approximately 1,600×g for 15 minutes at approximately 4° C., and plasma samples were dispensed into duplicate aliquots and stored frozen at approximately −70° C.

[4] = tested on: EpiAirway™ Cell Membrane (mucosal epithelial cell layer); test: Transepithelial electrical resistance (TER), EpiAirway in vitro epithelial tissue model; assay type: cell-based
[5] = intranasal PYY 205 μg/kg in PBS with 25 μM PN159 (Group 3)
[6] = intranasal PYY 205 μg/kg in PBS with 50 μM PN159 (Group 4)
[7] = intranasal PYY 205 μg/kg in PBS with 100 μM PN159 (Group 5)

SMILES: CC(C)C[C@H](NC(=O)[C@H](C)NC(=O)[C@H](CCCCN)NC(=O)[C@H](CC(C)C)NC(=O)[C@H](C)NC(=O)[C@H](CC(C)C)NC(=O)[C@H](CCCCN)NC(=O)[C@H](CC(C)C)NC(=O)[C@H](C)NC(=O)[C@H](CC(C)C)NC(=O)[C@@H](N)CCCCN)C(=O)N[C@@H](CCCCN)C(=O)N[C@@H](C)C(=O)N[C@@H](C)C(=O)N[C@@H](CC(C)C)C(=O)N[C@@H](CCCCN)C(=O)N[C@@H](CC(C)C)C(=O)N[C@@H](C)C(N)=O [PN159]
- TER reduction (in words) ([1]; Example 2, PTH formulation study, applied to apical side): Higher TER reduction was observed with increasing PN159 concentration
- TER(x)/TER(159) +/− SEM* ([1]; Example 7, length changes, relative to PN159): 1.00 +/− 0.14
- TER(x)/TER(159) +/− SEM ([1]; Table 6, D-amino acid substitutions, relative to PN159): 1.00 +/− 0.14
- Relative TER Decrease ([1]; Table 8, amino acid substitutions, relative to PN159): 1.0
- TER(x)/TER(159) +/− SEM* ([1]; Table 9, hydrophobic faces, relative to PN159): 1.00 +/− 0.14
- cytotoxicity (LDH) ([2]; Example 2, PTH study, PN159 25-100 μM): no significant cytotoxicity
- cytotoxicity as measured by LDH ([2]; in the presence of PN159 and galantamine lactate): low
- plasma concentration of PYY ([3]; 0 min post-dosing, intranasal PYY 205 μg/kg in PBS with 25 μM PN159): 228.675
- plasma concentration of PYY ([3]; 0 min post-dosing, intranasal PYY 205 μg/kg in PBS with 50 μM PN159): 424.4
- plasma concentration of PYY ([3]; 0 min post-dosing, intranasal PYY 205 μg/kg in PBS with 100 μM PN159): 294.225
- plasma concentration of PYY ([3]; 2.5 min post-dosing, intranasal PYY 205 μg/kg in PBS with 25 μM PN159): 526.375
- plasma concentration of PYY ([3]; 2.5 min post-dosing, intranasal PYY 205 μg/kg in PBS with 50 μM PN159): 749.975
- plasma concentration of PYY ([3]; 2.5 min post-dosing, intranasal PYY 205 μg/kg in PBS with 100 μM PN159): 1748.225
- plasma concentration of PYY ([3]; 5 min post-dosing, intranasal PYY 205 μg/kg in PBS with 25 μM PN159): 1430.15
- plasma concentration of PYY ([3]; 5 min post-dosing, intranasal PYY 205 μg/kg in PBS with 50 μM PN159): 1293.4
- plasma concentration of PYY ([3]; 5 min post-dosing, intranasal PYY 205 μg/kg in PBS with 100 μM PN159): 3088.2
- plasma concentration of PYY ([3]; 10 min post-dosing, intranasal PYY 205 μg/kg in PBS with 25 μM PN159): 6521.7
- plasma concentration of PYY ([3]; 10 min post-dosing, intranasal PYY 205 μg/kg in PBS with 50 μM PN159): 12517.2
- plasma concentration of PYY ([3]; 10 min post-dosing, intranasal PYY 205 μg/kg in PBS with 100 μM PN159): 14486.6
- plasma concentration of PYY ([3]; 15 min post-dosing, intranasal PYY 205 μg/kg in PBS with 25 μM PN159): 12563.075
- plasma concentration of PYY ([3]; 15 min post-dosing, intranasal PYY 205 μg/kg in PBS with 50 μM PN159): 34455.3
- plasma concentration of PYY ([3]; 15 min post-dosing, intranasal PYY 205 μg/kg in PBS with 100 μM PN159): 20882.725
- plasma concentration of PYY ([3]; 30 min post-dosing, intranasal PYY 205 μg/kg in PBS with 25 μM PN159): 15222.6
- plasma concentration of PYY ([3]; 30 min post-dosing, intranasal PYY 205 μg/kg in PBS with 50 μM PN159): 35294.375
- plasma concentration of PYY ([3]; 30 min post-dosing, intranasal PYY 205 μg/kg in PBS with 100 μM PN159): 25470.475
- plasma concentration of PYY ([3]; 45 min post-dosing, intranasal PYY 205 μg/kg in PBS with 25 μM PN159): 9081.125
- plasma concentration of PYY ([3]; 45 min post-dosing, intranasal PYY 205 μg/kg in PBS with 50 μM PN159): 21582.225
- plasma concentration of PYY ([3]; 45 min post-dosing, intranasal PYY 205 μg/kg in PBS with 100 μM PN159): 16499.55
- plasma concentration of PYY ([3]; 60 min post-dosing, intranasal PYY 205 μg/kg in PBS with 25 μM PN159): 4843.15
- plasma concentration of PYY ([3]; 60 min post-dosing, intranasal PYY 205 μg/kg in PBS with 50 μM PN159): 9461.925
- plasma concentration of PYY ([3]; 60 min post-dosing, intranasal PYY 205 μg/kg in PBS with 100 μM PN159): 10676.625
- plasma concentration of PYY ([3]; 120 min post-dosing, intranasal PYY 205 μg/kg in PBS with 25 μM PN159): 1224.2
- plasma concentration of PYY ([3]; 120 min post-dosing, intranasal PYY 205 μg/kg in PBS with 50 μM PN159): 2337.775
- plasma concentration of PYY ([3]; 120 min post-dosing, intranasal PYY 205 μg/kg in PBS with 100 μM PN159): 1891.275
- Relative AUC last ([3]; PN159, 25 μm (Group 3)): 21x
- Relative Cmax ([3]; PN159, 25 μm (Group 3)): 30x
- Relative AUC last ([3]; PN159, 50 μm (Group 4)): 46x
- Relative Cmax ([3]; PN159, 50 μm (Group 4)): 79x
- Relative AUC last ([3]; PN159, 100 μm (Group 5)): 38x
- Relative Cmax ([3]; PN159, 100 μm (Group 5)): 54x
- AUCINF, Mean [3, 5]: 796354.7 pg·min/mL
- AUClast, Mean [3, 5]: 748104.1 pg·min/mL
- AUCINF, Mean [3, 6]: 1787348 pg·min/mL
- AUClast, Mean [3, 6]: 1692499 pg·min/mL
- AUCINF, Mean [3, 7]: 1518949 pg·min/mL
- AUClast, Mean [3, 7]: 1384241 pg·min/mL
- TER (in words) ([4]; PN159 25, 50, 100 μM in the presence of 40 mg/ml galantamine lactate, pH 5.0): reduced TER
- TER reduction ([4]; PN159 25, 50, 100 μM with 2 mg/ml PTH, pH 4.5): more than 80%
